Laboratory results published in US20250027050A1, “LONG-TERM CULTURE OF COLORECTAL EPITHELIAL CELLS” (ISM CO., LTD., priority 2021, published 2025).
Entries after “also recorded” stand apart in the source; their conditions may differ.

Columns and labels:
Format in all cases: cell-based
[1] = tested on: Primary human colonic epithelial cells (HCoEpiC); assay: Long-term culture of primary human colonic epithelial cells in the presence of low molecular weight compounds (cell number, morphology); details: for cell morphology during long-term culture: 10 μM Y-27632 solely added, after 72 days of culture; for continued growth / long-term culture of colorectal epithelial cells (number of cells): complete medium with 10 μM Y-27632 solely added, culture continued for 72 days, compared with A, C, YA, YC groups
Protocol: Regarding Primary human colonic epithelial cells (HCoEpiC), Lot No. 17030 was purchased from ScienCell Research Laboratories, Inc. (SCR, Carlsbad, CA, United States) and used. A complete medium containing 5 mL of a colonic epithelial cell growth supplement (CoEpiCGS, SCR) and 5 mL of penicillin/streptomycin (P/S, SCR) added to 500 mL of a colonic epithelial cell medium (CoEpiCM, SCR) as a basal medium was used as a medium. To investigate the effect on release of exosomes, 10 μM Y-27632 (ROCK inhibitor) (Wako), 0.5 μM A-83-01 (ALK5/7/4 selective inhibitor) (Wako), and 3 μM CHIR99021 (GSK-3 inhibitor) (Axon Medchem, Reston, VA) were used. Cells were completely dissolved in a water bath at 37° C. and seeded on 10 mL of the complete medium in a 10-cm dish coated with poly-L-lysine (poly-[…] 2 μg/cm^2, SCR) at 2.5×10^5 cells/dish. On the following day, the medium was replaced with a fresh complete medium. The medium was replaced with a complete medium every 3 or 4 days until 70% confluency was reached and then every other day while 70% to 90% confluency was reached. Cells reaching 90% confluency were removed using a 0.05% trypsin/EDTA solution (T/E, SCR) and seeded onto a 12-well plate (Fisher-brand 12-well tissue culture plate with a flat bottom) at 2×10^4 cells/well. Twenty four hours later, the medium was replaced with a complete medium containing or not containing Y-27632 (10 μM), and thereafter the medium was replaced every other day until 90% confluency was reached. When 90% confluency was reached, the cells were subcultured again, and the above-described procedures were continued for 72 days.

[2] = tested on: Primary human colonic epithelial cells (HCoEpiC); assay: Particle diameter and particle number in culture supernatant by NanoSight
Protocol: (§1) Cells were completely dissolved in a water bath at 37° C. and seeded on 10 mL of the complete medium in a 10-cm dish coated with poly-L-lysine (poly-[…] 2 μg/cm^2, SCR) at 2.5×10^5 cells/dish. On the following day, the medium was replaced with a fresh complete medium. The medium was replaced with a complete medium every 3 or 4 days until 70% confluency was reached and then every other day while 70% to 90% confluency was reached. Cells reaching 90% confluency were removed using a 0.05% trypsin/EDTA solution (T/E, SCR) and seeded onto a 12-well plate (Fisher-brand 12-well tissue culture plate with a flat bottom) at 2×10^4 cells/well. Twenty four hours later, the medium was replaced with a complete medium containing or not containing Y-27632 (10 μM), and thereafter the medium was replaced every other day until 90% confluency was reached. When 90% confluency was reached, the cells were subcultured again, and the above-described procedures were continued for 72 days. The culture supernatant in the culture was recovered, and the particle diameter and the particle number were measured using a nanoparticle analysis system NanoSight (NS300, Malvern Panalytical Ltd.). Then, the signal intensities of exosome markers, CD9 and CD63, in the recovered culture supernatant were measured by an ExoScreen assay.

[3] = tested on: Primary human colonic epithelial cells (HCoEpiC); assay: ExoScreen assay of exosome markers CD9 and CD63 in culture supernatant
Protocol: as §1

Q: For `C[C@@H](N)[C@H]1CC[C@H](C(=O)Nc2ccncc2)CC1` [Y-27632, (1R,4r)-4-((R)-1-aminoethyl)-N-(pyridin-4-yl)cyclohexanecarboxamide], which “cell morphology during long-term culture” value [1] is on record?
A: the morphology was unchanged

Q: And the “cell morphology during long-term culture” value ([1]; listed as Y)?
A: no morphological change was observed

Q: What about the “continued growth / long-term culture of colorectal epithelial cells (number of cells)” value [1] of the same compound?
A: continued growth over the longest period; also recorded: allowed long-term culture of colorectal epithelial cells

Q: What about the “continued growth / long-term culture of colorectal epithelial cells (number of cells)” value ([1]; listed as Y) of the same compound?
A: Long-term culture was enabled

Q: And the “particle number concentration in the medium” value ([2]; Day 72 of culture, presence vs absence of Y-27632)?
A: higher in the absence of Y-27632

Q: What about the “particle diameter of released vesicles” value ([2]; culture supernatants at Day 28, Day 35, Day 72, Y(+) vs Y(−)) of the same compound?
A: unchanged

Q: What about the “exosomes detected using CD9 and CD63 markers (signal intensity)” value ([3]; culture supernatant of HCoEpiC cultured in the presence vs absence of Y-27632) of the same compound?
A: more exosomes were detected

Q: And the “decrease of CD9(+) exosomes after repeated passages” value ([3]; in the presence of Y-27632, fraction decreased)?
A: about ⅓
